Source: ChEMBL document CHEMBL1201862, “PubChem BioAssay data set” (2004)
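In this assay, cells in 96-well plates receive the compound at five concentrations for 48 hours. Endpoints are linearly interpolated between the surrounding concentrations. GI50: concentration for 50% inhibition of growth.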 Calls of active or inactive are those of the source. Cut-off read from the data, not from the text of the source: active = GI50 up to about 1.1 µM and inactive = higher.

Assays:
Assay in all cases: DTP human tumour cell line panel, 48 h
NCI-H522 = system: NCI-H522
NCI-H460 = system: NCI-H460
SK-MEL-2 = system: SK-MEL-2
U-251 = system: U-251
786-0 = system: 786-0
EKVX = system: EKVX
SK-MEL-5 = system: SK-MEL-5
PC-3 = system: PC-3
COLO 205 = system: COLO 205
Hs-578T = system: Hs-578T
HCT-116 = system: HCT-116
HT-29 = system: HT-29
NCI-H23 = system: NCI-H23
TK-10 = system: TK-10
OVCAR-5 = system: OVCAR-5
SF-539 = system: SF-539
SW-620 = system: SW-620
HCT-15 = system: HCT-15
SN12C = system: SN12C
M14 = system: M14

Row | SMILES | GI50 (NCI-H522) | GI50 (NCI-H460) | GI50 (SK-MEL-2) | GI50 (U-251) | GI50 (786-0) | GI50 (EKVX) | GI50 (SK-MEL-5) | GI50 (PC-3) | GI50 (COLO 205) | GI50 (Hs-578T) | GI50 (HCT-116) | GI50 (HT-29) | GI50 (NCI-H23) | GI50 (TK-10) | GI50 (OVCAR-5) | GI50 (SF-539) | GI50 (SW-620) | GI50 (HCT-15) [µM] | GI50 (SN12C) | GI50 (M14)
1 | COc1cc(C(=O)c2cocc2C(=O)c2ccc3c(c2)OCO3)cc(OC)c1OC | 0.268 µM (active) | 0.658 µM (active) | 0.619 µM (active) | 0.537 µM (active) | 0.57 µM (active) | 6.64 µM (inactive) | 0.232 µM (active) | 0.355 µM (active) | 4.91 µM (inactive) | 0.274 µM (active) | 0.333 µM (active) | 0.244 µM (active) | 0.826 µM (active) | 3.18 µM (inactive) | 18.6 µM (inactive) | 0.399 µM (active) | 0.316 µM (active) | 0.347 | 1.49 µM (inactive) | 1 µM (active)
2 | CCCCCCNCCCNc1c2ccccc2nc2cccc([N+](=O)[O-])c12 | 0.0121 µM (active) | 0.00269 µM (active) | 0.0181 µM (active) | 0.0118 µM (active) | 0.00948 µM (active) | 0.0246 µM (active) | 0.0103 µM (active) | 0.0163 µM (active) | 0.00347 µM (active) | 0.0448 µM (active) | 0.0352 µM (active) | 0.00528 µM (active) | 0.0116 µM (active) | 0.0621 µM (active) | 0.0315 µM (active) | 0.116 µM (active) | 0.00481 µM (active) | 0.0615 | 0.0173 µM (active) | 0.0119 µM (active)
3 | CC1(C)C/C(=N/O)c2c(nc3ccc4ccccc4c3c2-c2ccc(Cl)cc2)C1 | 15.3 µM (inactive) | 6.14 µM (inactive) | 43.7 µM (inactive) | 11.5 µM (inactive) | 3.79 µM (inactive) | 15.7 µM (inactive) | 37.2 µM (inactive) | 25.9 µM (inactive) | 18.2 µM (inactive) | 23.3 µM (inactive) | 11 µM (inactive) | 15.4 µM (inactive) | 22 µM (inactive) | 16.1 µM (inactive) | 40.7 µM (inactive) | 16.6 µM (inactive) | 18.3 µM (inactive) | 16.4 | 10.8 µM (inactive) | 33.5 µM (inactive)
4 | CC(C)=CC(=O)c1[nH]c2ccccc2c1CC(=O)NCCc1c[nH]cn1 | > 100 µM (inactive) | > 100 µM (inactive) | > 100 µM (inactive) | > 100 µM (inactive) | > 100 µM (inactive) | > 100 µM (inactive) | > 100 µM (inactive) | > 100 µM (inactive) | > 100 µM (inactive) | > 100 µM (inactive) | > 100 µM (inactive) | > 100 µM (inactive) | > 100 µM (inactive) | > 100 µM (inactive) | > 100 µM (inactive) | > 100 µM (inactive) | > 100 µM (inactive) | > 100 | > 100 µM (inactive) | > 100 µM (inactive)
5 | CC1OC(O[C@@H]2OC=C(C=O)[C@@]3(O)CC[C@H](C)[C@@H]23)C(O)C(O)C1O (stereo partly specified) | > 100 µM (inactive) | > 100 µM (inactive) | > 100 µM (inactive) | > 100 µM (inactive) | > 100 µM (inactive) | > 100 µM (inactive) | > 100 µM (inactive) | > 100 µM (inactive) | > 100 µM (inactive) | > 100 µM (inactive) | > 100 µM (inactive) | > 100 µM (inactive) | > 100 µM (inactive) | > 100 µM (inactive) | > 100 µM (inactive) | > 100 µM (inactive) | > 100 µM (inactive) | > 100 | > 100 µM (inactive) | > 100 µM (inactive)
6 | Cc1ccccc1C(=O)N1CCc2c([nH]c3ccccc23)C1 | 19.1 µM (inactive) | 21.7 µM (inactive) | 12.8 µM (inactive) | 18 µM (inactive) | 22.9 µM (inactive) | 24.9 µM (inactive) | 15.9 µM (inactive) | 14 µM (inactive) | 17.4 µM (inactive) | 29 µM (inactive) | 17.7 µM (inactive) | 18.8 µM (inactive) | 21.4 µM (inactive) | 28.2 µM (inactive) | 19.5 µM (inactive) | 21.5 µM (inactive) | 27.6 µM (inactive) | 21.3 | 17.2 µM (inactive) | 19.4 µM (inactive)
7 | COc1cc2cc(C(=O)N3CC(CCl)c4ccc([N+](C)(C)Cc5ccccc5[N+](=O)[O-])cc43)[nH]c2c(OC)c1OC (stereo unspecified) | 0.198 µM (active) |  | 1.89 µM (inactive) | 2.18 µM (inactive) | 1.53 µM (inactive) | 3.78 µM (inactive) | 0.875 µM (active) | 1.68 µM (inactive) | 2 µM (inactive) | 2.4 µM (inactive) | 1.66 µM (inactive) | 0.962 µM (active) | 0.762 µM (active) | 2.74 µM (inactive) | 2.66 µM (inactive) | 1.63 µM (inactive) | 2.01 µM (inactive) | 2.14 | 4.05 µM (inactive) | 1.67 µM (inactive)
8 | O/N=C(\CC(O)(C(F)(F)F)C(F)(F)F)c1cccs1 | > 10 µM (inactive) | > 10 µM (inactive) | > 10 µM (inactive) | > 10 µM (inactive) | > 10 µM (inactive) | > 10 µM (inactive) | > 10 µM (inactive) | > 10 µM (inactive) | > 10 µM (inactive) | > 10 µM (inactive) | > 10 µM (inactive) | > 10 µM (inactive) | > 10 µM (inactive) | > 10 µM (inactive) | > 10 µM (inactive) | > 10 µM (inactive) | > 10 µM (inactive) | > 10 | > 10 µM (inactive) | > 10 µM (inactive)
9 | CC1OC(OC2C(O[C@H]3CC[C@@]4(C)[C@@H](CC[C@@H]5[C@@H]4CC[C@]4(C)[C@@H]6[C@H](C[C@@H]54)O[C@]4(CC[C@@H](C)CO4)[C@H]6C)C3)OC(CO)C(OC3OC(CO)C(O)C(OC4OCC(O)C(O)C4O)C3OC3OCC(O)C(O)C3O)C2O)C(O)C(O)C1O (stereo partly specified) | 0.676 µM (active) | 0.625 µM (active) | 1.02 µM (active) | 0.514 µM (active) | 1.64 µM (inactive) | 1.51 µM (inactive) | 1.12 µM (inactive) | 0.64 µM (active) | 0.351 µM (active) | 1.03 µM (active) | 0.321 µM (active) | 0.495 µM (active) | 1.52 µM (inactive) | 1.66 µM (inactive) | 1.16 µM (inactive) | 0.303 µM (active) | 0.251 µM (active) | 1.21 |  | 0.434 µM (active)
10 | C=C(C)[C@@]1(O)O[C@H]2C[C@@]3(C)OC(=CC3=O)/C(C)=C\[C@@H]3OC(=O)[C@@]1(C)[C@H]32 | 3.61 µM (inactive) | 22.8 µM (inactive) | 14 µM (inactive) | 16.1 µM (inactive) | 11.7 µM (inactive) | 29.2 µM (inactive) | 13.3 µM (inactive) | 16.3 µM (inactive) | 16 µM (inactive) | 45.8 µM (inactive) | 7.64 µM (inactive) | 19.5 µM (inactive) | 15.3 µM (inactive) | 22.9 µM (inactive) | 14 µM (inactive) | 23.9 µM (inactive) | 4.9 µM (inactive) | 9.25 | 15 µM (inactive) | 14.9 µM (inactive)
11 | COC(=O)C(/C(=N/N)C(=O)Nc1ccc(C)c(C)c1)c1nc2ccc(Cl)cc2nc1O (stereo unspecified) | > 100 µM (inactive) | > 100 µM (inactive) | > 100 µM (inactive) | > 100 µM (inactive) | > 100 µM (inactive) | 74.5 µM (inactive) | > 100 µM (inactive) | > 100 µM (inactive) |  | > 100 µM (inactive) | > 100 µM (inactive) | > 100 µM (inactive) | > 100 µM (inactive) | > 100 µM (inactive) | > 100 µM (inactive) | > 100 µM (inactive) | > 100 µM (inactive) | > 100 | > 100 µM (inactive) | > 100 µM (inactive)
12 | Sc1nnc(C23CC4CC(CC(C4)C2)C3)n1-c1ccc(Cl)cc1 | 20.2 µM (inactive) | 5.69 µM (inactive) | 10.9 µM (inactive) | 9.18 µM (inactive) | 14.6 µM (inactive) |  | 3.3 µM (inactive) | 11.2 µM (inactive) | 13.2 µM (inactive) | 22.1 µM (inactive) | 7.59 µM (inactive) | 14.6 µM (inactive) | 27.5 µM (inactive) | 22.3 µM (inactive) | 35.4 µM (inactive) | 22.7 µM (inactive) | 16.1 µM (inactive) | 7.83 | 14.1 µM (inactive) | 15.1 µM (inactive)
13 | O=[N+]([O-])c1ccc2c(/N=N/c3ccc4ccccc4c3O)c(O)cc(S(=O)(=O)O)c2c1 | 7.71 µM (inactive) | 38.5 µM (inactive) | 23 µM (inactive) | 7.41 µM (inactive) | 18.7 µM (inactive) | 14.7 µM (inactive) | 15.8 µM (inactive) | 18.2 µM (inactive) | 27.7 µM (inactive) | 41 µM (inactive) | 19.5 µM (inactive) | 44.5 µM (inactive) | 31.3 µM (inactive) | > 65.3 µM (inactive) | 15.1 µM (inactive) | 11.4 µM (inactive) | 18.7 µM (inactive) | 9.93 | 38.5 µM (inactive) | 6.76 µM (inactive)
14 | COc1ccc(CCc2cc(OC)c(OC)c(OC)c2)cc1 | 0.0195 µM (active) | 0.0277 µM (active) | 0.146 µM (active) | 0.0247 µM (active) | 0.15 µM (active) | 1.18 µM (inactive) | 0.0212 µM (active) | 0.043 µM (active) | 0.0191 µM (active) | 0.0438 µM (active) | 0.0214 µM (active) | 0.0235 µM (active) | 0.0743 µM (active) | 2.64 µM (inactive) | 0.456 µM (active) | 0.0258 µM (active) | 0.0171 µM (active) | 0.0169 | 0.114 µM (active) | 0.0318 µM (active)
